We go through four molecules from patent US5998488A, “Ophthalmic composition” (Lion Corporation, priority 1994, dated 1999).

Assay [1] deals with E. coli, P. aeru, S. aureus, A. nigar, Candida. Nature of the assay: Antimicrobial test (preservative effectiveness test, USP), microorganism type not specified. The assay is classed as cell-based. As to conditions: for Enhancement of antimicrobial activity (in words): solutions containing benzalkonium chloride, α-cyclodextrin, and EDTA-2Na, alone or in admixture. The protocol: Using bacteria Escherichia coli (E. coli), Pseudomonas aeruginosa (P. aeru), and Stapyrococcus aureus (S. aureus) and fungi Aspergillus nigar (A. nigar) and Candida albicans (Candida) as infectious microorganisms, a preservative effectiveness test was carried out according to the Pharmacopoeia of the United States.
++: microorganisms died within 5 days
+: microorganisms died in 6-10 days
-:microorganisms died in 11-15 days or over 15 days
Solutions were prepared in accordance with the formulation shown in Experiment 1 in a conventional manner as used in the preparation of eye drops while the amount of disodium ethylenediaminetetraacetate (EDTA-2Na) blended was in the range of 0.002 to 0.3%. The solutions were subject to the antimicrobial test of Experiment 3 and evaluated for antimicrobial activity according to the same criterion as above.
Solutions of the following formulation were prepared in a conventional manner as used in the preparation of eye drops.
The solutions were subject to the antimicrobial test of Experiment 3 and evaluated for antimicrobial activity according to the same criterion as above.
Solutions of the formulation shown in Table 7 were prepared to a total amount of 1,000 g in a conventional manner as used in the preparation of eye drops. […] The ophthalmic solutions were subject to the same tests as in Experiments 1 and 3. In the test of Experiment 3, the ophthalmic solutions were evaluated for antimicrobial activity according to the same criterion as before.

The nature of assay [2]: Benzalkonium chloride adsorption test (soft contact lens Seequence). The assay is classed as physicochemical. The conditions noted are these: α-cyclodextrin 0%; benzalkonium chloride 0.01%; 25° C., 24 hours. The protocol:
(§1) A test was conducted to examine the inhibition of benzalkonium chloride adsorption to soft contact lenses. Solutions of the following formulation were prepared in a conventional manner as used in the preparation of eye drops.
(§2) The percent inhibition of benzalkonium chloride adsorption to commercially available soft contact lenses was determined by the following test.
(§3) Benzalkonium chloride adsorption test A 30-ml vial was charged with 10 ml of the solution and a soft contact lens was immersed therein. In a constant temperature tank at 25° C., the vial was shaken for 24 hours. After the contact lens was removed from the vial, the concentration of benzalkonium chloride in the solution was quantitatively determined by high performance liquid chromatography. A percent inhibition of adsorption was calculated according to the following formula.
(§4) As a control, the above procedure was repeated except that no contact lens was immersed.
(§5) Inhibition of adsorption (%)=(concentration of benzalkonium chloride in sample solution)/(concentration of benzalkonium chloride in control solution)×100
(§6) Note that Seequence, Nichicon Soft and Menicon Soft are trademarks of soft contact lenses commercially available from Bausch & Lomb, Nihon Contact K.K., and Menicon K.K., respectively.

The nature of assay [3]: Benzalkonium chloride adsorption test (soft contact lens Nichicon Soft μ). The class given is physicochemical. The conditions noted are these: α-cyclodextrin 0%; benzalkonium chloride 0.01%; 25° C., 24 hours. The method, then: as §1, §2, §3, §4, §5, §6
Assay [4] can be described thus: Benzalkonium chloride adsorption test (soft contact lens Menicon Soft 72). The class given is physicochemical. The conditions noted are these: α-cyclodextrin 0%; benzalkonium chloride 0.01%; 25° C., 24 hours. The protocol:
as §1, §2, §3, §4, §5, §6

`O=BOB(O)OB(O)OB=O` [Borax]: the Antimicrobial activity entry in assay [1] (boric acid 0%, borax 0.01%, about pH 7.2) is recorded as “+ (microorganisms died in 6-10 days)”; in assay [1] (boric acid 0%, borax 0.02%, about pH 7.2), “+ (microorganisms died in 6-10 days)”; in assay [1] (boric acid 0%, borax 0.04%, about pH 7.2), “+ (microorganisms died in 6-10 days)”; in assay [1] (boric acid 0%, borax 0.06%, about pH 7.2), “+ (microorganisms died in 6-10 days)”; in assay [1] (boric acid 0%, borax 0.08%, about pH 7.2), “+ (microorganisms died in 6-10 days)”; in assay [1] (boric acid 0%, borax 0.1%, about pH 7.2) it was “+ (microorganisms died in 6-10 days)”. For the same molecule, in assay [1] (boric acid 0%, borax 0.15%, about pH 7.2), the Antimicrobial activity entry is listed as “++ (microorganisms died within 5 days)”. The “Enhancement of antimicrobial activity (in words)” value in assay [1] is reported as “effective for enhancing the antimicrobial activity”.

With `OB(O)O` [Boric acid], the Antimicrobial activity entry in assay [1] (boric acid 0.05%, borax 0%, about pH 7.2) is “+ (microorganisms died in 6-10 days)”; in assay [1] (boric acid 0.1%, borax 0%, about pH 7.2) it was “++ (microorganisms died within 5 days)”; in assay [1] (boric acid 0.2%, borax 0%, about pH 7.2), “++ (microorganisms died within 5 days)”; in assay [1] (boric acid 0.4%, borax 0%, about pH 7.2), “++ (microorganisms died within 5 days)”; in assay [1] (boric acid 0.6%, borax 0%, about pH 7.2) it was “++ (microorganisms died within 5 days)”; in assay [1] (boric acid 0.8%, borax 0%, about pH 7.2), “++ (microorganisms died within 5 days)”. For the same molecule, in assay [1] (boric acid 1.0%, borax 0%, about pH 7.2), the Antimicrobial activity result is recorded as “++ (microorganisms died within 5 days)”. For the same molecule, the “Enhancement of antimicrobial activity (in words)” value in assay [1] is “effective for enhancing the antimicrobial activity”.

For the molecule `O=C([O-])CN(CCN(CC(=O)O)CC(=O)O)CC(=O)[O-].[Na+].[Na+]` [EDTA-2Na, disodium ethylenediaminetetraacetate], in assay [1] (0.01 to 1.0% of α-cyclodextrin, remarkable at EDTA-2Na at least 0.006%), the “Effect on lowering of antimicrobial activity by α-cyclodextrin (in words)” value was “prevents a lowering of antimicrobial activity”. For the same molecule, the Antimicrobial activity entry in assay [1] (EDTA-2Na 0.002%, α-cyclodextrin 0.01%) is listed as “+ (microorganisms died in 6-10 days)”; in assay [1] (EDTA-2Na 0.002%, α-cyclodextrin 0.03%), “- (microorganisms died in 11-15 days or over 15 days)”; in assay [1] (EDTA-2Na 0.002%, α-cyclodextrin 0.05%), “- (microorganisms died in 11-15 days or over 15 days)”; in assay [1] (EDTA-2Na 0.002%, α-cyclodextrin 0.1%) it was “- (microorganisms died in 11-15 days or over 15 days)”; in assay [1] (EDTA-2Na 0.002%, α-cyclodextrin 0.3%), “- (microorganisms died in 11-15 days or over 15 days)”; in assay [1] (EDTA-2Na 0.002%, α-cyclodextrin 0.5%), “- (microorganisms died in 11-15 days or over 15 days)”. Besides, the Antimicrobial activity result is on record as “- (microorganisms died in 11-15 days or over 15 days)” in assay [1] (EDTA-2Na 0.002%, α-cyclodextrin 1.0%); “+ (microorganisms died in 6-10 days)” in assay [1] (EDTA-2Na 0.004%, α-cyclodextrin 0.01%); “- (microorganisms died in 11-15 days or over 15 days)” in assay [1] (EDTA-2Na 0.004%, α-cyclodextrin 0.03%); “- (microorganisms died in 11-15 days or over 15 days)” in assay [1] (EDTA-2Na 0.004%, α-cyclodextrin 0.05%); “- (microorganisms died in 11-15 days or over 15 days)” in assay [1] (EDTA-2Na 0.004%, α-cyclodextrin 0.1%); “- (microorganisms died in 11-15 days or over 15 days)” in assay [1] (EDTA-2Na 0.004%, α-cyclodextrin 0.3%). The Antimicrobial activity result in assay [1] (EDTA-2Na 0.004%, α-cyclodextrin 0.5%) is recorded as “- (microorganisms died in 11-15 days or over 15 days)”; in assay [1] (EDTA-2Na 0.004%, α-cyclodextrin 1.0%), “- (microorganisms died in 11-15 days or over 15 days)”; in assay [1] (EDTA-2Na 0.006%, α-cyclodextrin 0.01%), “+ (microorganisms died in 6-10 days)”; in assay [1] (EDTA-2Na 0.006%, α-cyclodextrin 0.03%) it was “+ (microorganisms died in 6-10 days)”; in assay [1] (EDTA-2Na 0.006%, α-cyclodextrin 0.05%) it was “+ (microorganisms died in 6-10 days)”; in assay [1] (EDTA-2Na 0.006%, α-cyclodextrin 0.1%) it was “+ (microorganisms died in 6-10 days)”. The Antimicrobial activity entry in assay [1] (EDTA-2Na 0.006%, α-cyclodextrin 0.3%) was “+ (microorganisms died in 6-10 days)”; in assay [1] (EDTA-2Na 0.006%, α-cyclodextrin 0.5%), “+ (microorganisms died in 6-10 days)”; in assay [1] (EDTA-2Na 0.006%, α-cyclodextrin 1.0%), “+ (microorganisms died in 6-10 days)”; in assay [1] (EDTA-2Na 0.01%, α-cyclodextrin 0.01%), “+ (microorganisms died in 6-10 days)”; in assay [1] (EDTA-2Na 0.01%, α-cyclodextrin 0.03%), “+ (microorganisms died in 6-10 days)”; in assay [1] (EDTA-2Na 0.01%, α-cyclodextrin 0.05%), “+ (microorganisms died in 6-10 days)”. Also, the Antimicrobial activity result in assay [1] (EDTA-2Na 0.01%, α-cyclodextrin 0.1%) is given as “+ (microorganisms died in 6-10 days)”; in assay [1] (EDTA-2Na 0.01%, α-cyclodextrin 0.3%), “+ (microorganisms died in 6-10 days)”; in assay [1] (EDTA-2Na 0.01%, α-cyclodextrin 0.5%), “+ (microorganisms died in 6-10 days)”; in assay [1] (EDTA-2Na 0.01%, α-cyclodextrin 1.0%), “+ (microorganisms died in 6-10 days)”; in assay [1] (EDTA-2Na 0.05%, α-cyclodextrin 0.01%), “+ (microorganisms died in 6-10 days)”; in assay [1] (EDTA-2Na 0.05%, α-cyclodextrin 0.03%) it was “+ (microorganisms died in 6-10 days)”. Further, the Antimicrobial activity result was “+ (microorganisms died in 6-10 days)” in assay [1] (EDTA-2Na 0.05%, α-cyclodextrin 0.05%); “+ (microorganisms died in 6-10 days)” in assay [1] (EDTA-2Na 0.05%, α-cyclodextrin 0.1%); “+ (microorganisms died in 6-10 days)” in assay [1] (EDTA-2Na 0.05%, α-cyclodextrin 0.3%); “+ (microorganisms died in 6-10 days)” in assay [1] (EDTA-2Na 0.05%, α-cyclodextrin 0.5%); “+ (microorganisms died in 6-10 days)” in assay [1] (EDTA-2Na 0.05%, α-cyclodextrin 1.0%); “+ (microorganisms died in 6-10 days)” in assay [1] (EDTA-2Na 0.1%, α-cyclodextrin 0.01%). In addition, the Antimicrobial activity entry in assay [1] (EDTA-2Na 0.1%, α-cyclodextrin 0.03%) is listed as “+ (microorganisms died in 6-10 days)”; in assay [1] (EDTA-2Na 0.1%, α-cyclodextrin 0.05%), “+ (microorganisms died in 6-10 days)”; in assay [1] (EDTA-2Na 0.1%, α-cyclodextrin 0.1%) it was “+ (microorganisms died in 6-10 days)”; in assay [1] (EDTA-2Na 0.1%, α-cyclodextrin 0.3%) it was “+ (microorganisms died in 6-10 days)”; in assay [1] (EDTA-2Na 0.1%, α-cyclodextrin 0.5%), “+ (microorganisms died in 6-10 days)”; in assay [1] (EDTA-2Na 0.1%, α-cyclodextrin 1.0%), “+ (microorganisms died in 6-10 days)”. Moreover, the Antimicrobial activity result in assay [1] (EDTA-2Na 0.3%, α-cyclodextrin 0.01%) is given as “+ (microorganisms died in 6-10 days)”; in assay [1] (EDTA-2Na 0.3%, α-cyclodextrin 0.03%), “+ (microorganisms died in 6-10 days)”; in assay [1] (EDTA-2Na 0.3%, α-cyclodextrin 0.05%), “+ (microorganisms died in 6-10 days)”; in assay [1] (EDTA-2Na 0.3%, α-cyclodextrin 0.1%), “+ (microorganisms died in 6-10 days)”; in assay [1] (EDTA-2Na 0.3%, α-cyclodextrin 0.3%) it was “+ (microorganisms died in 6-10 days)”; in assay [1] (EDTA-2Na 0.3%, α-cyclodextrin 0.5%), “+ (microorganisms died in 6-10 days)”. For the same molecule, the Antimicrobial activity result in assay [1] (EDTA-2Na 0.3%, α-cyclodextrin 1.0%) is “+ (microorganisms died in 6-10 days)”.

Turning to “benzalkonium chloride [reference compound]”, the figures for the Inhibition of adsorption in assay [2], in assay [3] and in assay [4] were 65%, 60% and 65%, respectively. The Antimicrobial activity result in assay [1] (boric acid 0%, borax 0%, EDTA-2Na 0.006%, α-cyclodextrin 0.03%, about pH 7.2) is recorded as “+ (microorganisms died in 6-10 days)”.
